Results taken from patent US8642284B1, “Methods for identifying agents that alter NAD-dependent deacetylation activity of a SIR2 protein” (Massachusetts Institute of Technology, priority 1999, dated 2014).
“Also recorded” adds a separate entry of the source.

Experiments:
[1] = biological target: T1, mSir2α (Mus musculus, UniProt Q923E4); experiment: ADP-ribosylation assay, sensitivity of mSir2α to poly- and mono-ADP-ribosylation inhibitors (histone H2B, 32P-NAD); type: biochemical; settings: for inhibition of the ADP-ribosylation activity of the mSir2α protein: 40, 200 and 1000 μM
T1 construct: ADP-ribosylase activity of bacterial recombinant full-length proteins of ySir2p and mSir2α was determined in in vitro assays; 6×His; made in house; host or cells: E. coli BL21 (DE3) pLysS with an extra copy of arginine tRNA gene, pET28a
T1 sequence (Q923E4 1-737): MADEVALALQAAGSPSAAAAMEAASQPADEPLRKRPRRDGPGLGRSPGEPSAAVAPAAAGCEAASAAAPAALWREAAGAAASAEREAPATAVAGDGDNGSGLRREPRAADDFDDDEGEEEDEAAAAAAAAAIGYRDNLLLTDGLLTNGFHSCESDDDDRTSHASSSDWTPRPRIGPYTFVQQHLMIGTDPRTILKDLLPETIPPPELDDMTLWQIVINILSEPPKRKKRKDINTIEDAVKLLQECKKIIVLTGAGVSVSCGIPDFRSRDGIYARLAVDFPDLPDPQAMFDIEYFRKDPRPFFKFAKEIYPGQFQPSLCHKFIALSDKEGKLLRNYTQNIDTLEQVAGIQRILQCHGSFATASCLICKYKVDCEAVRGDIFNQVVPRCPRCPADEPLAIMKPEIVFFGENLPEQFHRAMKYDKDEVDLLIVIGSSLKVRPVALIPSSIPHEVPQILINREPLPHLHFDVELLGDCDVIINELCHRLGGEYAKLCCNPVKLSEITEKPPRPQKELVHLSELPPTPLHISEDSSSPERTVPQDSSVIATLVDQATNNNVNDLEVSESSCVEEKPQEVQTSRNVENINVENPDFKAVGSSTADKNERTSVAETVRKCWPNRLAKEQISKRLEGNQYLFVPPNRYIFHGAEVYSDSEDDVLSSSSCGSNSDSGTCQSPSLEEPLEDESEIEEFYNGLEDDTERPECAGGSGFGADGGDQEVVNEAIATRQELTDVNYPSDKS
Description: (§1) The typical reaction was performed in 50 or 100 μl of the buffer containing 5 mM Tris-HCl [pH8.0 or 9.0], 4 mM MgCl2, 0.2 mM DTT, 1 μM cold β-NAD^+ (SIGMA®) and 8 μCi nicotinamide adenine dinucleotide 5′[α-^32P]triphosphate (NAD) as a donor of ADP-ribose (˜1000 Ci/mmol, Amersham Pharmacia Biotech). To check the sensitivity to poly- or mono-ADP-ribosylation inhibitors, 3-aminobenzamide (ICN Pharmaceuticals, CA), benzamide, novobiocin and coumermycin A1 (SIGMA®) were added to the reactions prior to adding Sir2 proteins, respectively. The wild type or mutant recombinant proteins (0.5-1 μg for ySir2p and 10 μg of mSir2α) were added with 4 μg of each histone purchased from Roche Molecular Biochemicals (Indianapolis, Ind.). For the peptide experiments, 5-10 μg of unacetylated or acetylated N-terminal tail peptides (amino acids 1-20) of H3 and H4 purchased from Upstate Biotechnology™ (Lake Placid, N.Y.) were used as substrates of the yeast and mouse Sir2 recombinant proteins.
To analyze histone modification, 25 μl of 100% trichloroacetic acid (TCA) solution was mixed to the reaction mixture and left on ice for 15 min. The protein precipitates were centrifuged at 4° C. and washed with 5 or 20% TCA solution twice. The pellets were dissolved in 15 μl of Leammli's sample buffer and boiled for 1.5 min. The proteins were electrophoresed in a 10-20% gradient SDS-PAGE gel. The gel was stained with COOMASSIE® Brilliant Blue R-250 (GibcoBRL Life Technologies™, Frederick, Md.) to check equal loading of histones, dried, and exposed to KODAK® X-OMAT film.
The sensitivity of the ADP-ribosylase activity of mSir2α to poly ADP-ribosylation inhibitors (3-aminobenzamide and benzamide) and mono-ADP-ribosylation inhibitors (novobiocin and coumermycin A1) was evaluated. (FIG. 4F).

[2] = biological target: T2, Sir2p (Saccharomyces cerevisiae, UniProt P06700); experiment: ADP-ribosylation and NAD hydrolysis by recombinant yeast Sir2p (intact histone H3, H3 peptide; SDS-PAGE, TLC); type: biochemical; settings: 200 μM; for inhibition of NAD hydrolysis by Sir2p: H3 peptide, TLC; for inhibition of ADP-ribosylation by Sir2p: intact histone H3 and H3 peptide
T2 construct: purified recombinant yeast (rSir2p) protein, mouse Sir2 (mSir2α) proteins and vector controls; 6×His; made in house; host or cells: E. coli BL21 (DE3), pET28a
Description: as §1
(§2) The typical reaction of Sir2 deacetylase activity was performed in 50 μl of buffer containing 50 mM Tris-HCl [pH 9.0], 4 mM MgCl2, 0.2 mM DTT, variable concentration of cold nicotinamide adenine dinucleotide (NAD) or NAD derivatives (SIGMA®, MO), 5-10 μg of the purified recombinant Sir2 proteins, and 10 μg of the histone H3 N-terminal tail peptide (amino acid 1-20) di-acetylated at positions 9 and 14 (Upstate Biotechnology™, NY). […] To detect the ADP-ribosylation activity, 8 μCi of NAD 5′-[α-^32P]triphosphate (˜1000 Ci/mmol, Amersham Pharmacia Biotech™, NJ) was added to the same reaction containing 1 μM cold NAD. Histone H3 protein (4 μg) (Roche Molecular Biochemicals™, IN) were used for this assay. All reaction mixtures were incubated at room temperature for 1 hr. Trichostatin A and coumermycin A1 (SIGMA™) were prepared in dimethylsulfoxide (DMSO, SIGMA®), and 5 μl of solvent or inhibitor was added to the reactions prior to adding Sir2 proteins.
Electron-spray mass spectroscopy (also referred to herein as mass spectroscopy) was done on the PE Sciex Model API365™ system. Matrix assisted laser desorption/ionization (MALDI) mass spectroscopy can also be used. The electron-spray mass spectroscopy data were analyzed by the BioMultiView Program™ (version 1.3.1). To detect the ADP-ribosylated intact H3 protein, the pellets were dissolved in 15 μl of Leammli sample buffer, boiled for 1.5 min and electrophoresed in a 10-20% gradient SDS-PAGE gel. The gel was stained with Coomassie Brilliant Blue to check equal loading of histones, dried, and exposed to KODAK® X-OMAT film. […]
The effects of a known inhibitor of mono-ADP-ribosyltransferases, coumermycin A1 (Banasik, M., et al., Mol. Cell. Biochem. 138: 185-187 (1994)) was evaluated. […]

[3] = biological target: T2, Sir2p; experiment: NAD-dependent deacetylation of di-acetylated H3 peptide by recombinant yeast Sir2p (HPLC); type: biochemical; settings: 200 μM
Description: as §2
After the incubation, the products were precipitated at −20° C. overnight by adding 50 μl of distilled water and 25 μl of 100% trichloroacetic acid (TCA) solution. For high pressure liquid chromatography (HPLC), the precipitates were reconstituted in 5% CH3CN and 0.1% trifluoroacetic acid (TFA) and run in the gradient concentration between 0.05% TFA and 0.043% TFA plus 80% CH3CN on Hewlett Packard Model 1100 HPLC system with 214TP52 column (VYDAC, CA). The chromatograms at the absorbance of 210 nm were digitally recorded and analyzed by Hewlett Packard ChemStation™ system (version A.06.03 [509]). Fractions of samples were collected every 1 min by Gilson™ Fraction Collector Model 203. Peptide sequencing was done by the Applied Biosystems PROCISE® 494 HT protein sequencing system. PTH amino acid chromatograms were recorded and analyzed by the ABI Model 610A2.1 data integration/analysis system.
The experiments employed purified recombinant Sir2p in a reaction with NAD and a peptide of the histone H3 amino-terminal tail (residues 1-20) di-acetylated at lysines 9 and 14. These lysines are hypoacetylated in silenced chromatin and mutations at these positions to glycine greatly reduce silencing in vivo (Thompson, J. S., et al., Nature 369: 245-247 (1994)). The products of a reaction containing 5 μg of recombinant yeast Sir2p (79 pmoles) (FIG. 8a), 10 μg of the H3 peptide (4.2 nmoles) increasing concentrations of NAD were analyzed s by high pressure liquid chromatography (HPLC).

[4] = test system: mono-ADP-ribosyltransferases; settings: literature value; read-out: reported IC50 concentration; cited from earlier work

T2 sequence (P06700 whole entry): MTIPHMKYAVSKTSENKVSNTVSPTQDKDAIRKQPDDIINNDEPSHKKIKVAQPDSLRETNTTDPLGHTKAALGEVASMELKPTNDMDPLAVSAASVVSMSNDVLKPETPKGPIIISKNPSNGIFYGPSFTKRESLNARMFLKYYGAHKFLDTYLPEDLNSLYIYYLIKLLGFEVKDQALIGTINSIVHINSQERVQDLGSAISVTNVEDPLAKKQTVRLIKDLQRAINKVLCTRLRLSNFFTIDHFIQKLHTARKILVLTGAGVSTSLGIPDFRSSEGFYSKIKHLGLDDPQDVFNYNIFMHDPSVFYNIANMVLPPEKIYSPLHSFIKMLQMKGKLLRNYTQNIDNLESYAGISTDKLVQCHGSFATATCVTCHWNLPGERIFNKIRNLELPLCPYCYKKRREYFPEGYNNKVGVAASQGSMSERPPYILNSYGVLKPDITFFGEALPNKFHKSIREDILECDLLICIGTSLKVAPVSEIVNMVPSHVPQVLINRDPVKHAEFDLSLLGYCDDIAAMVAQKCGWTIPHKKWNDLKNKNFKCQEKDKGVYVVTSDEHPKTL

NC(=O)c1cccc(N)c1 [3-aminobenzamide]
inhibition of the ADP-ribosylation activity of the mSir2α protein [1]: did not inhibit

CO[C@H]1[C@H](OC(=O)c2ccc(C)[nH]2)[C@H](O)[C@@H](Oc2ccc3c(O)c(NC(=O)c4c[nH]c(C(=O)Nc5c(O)c6ccc(O[C@H]7OC(C)(C)[C@@H](OC)[C@H](OC(=O)c8ccc(C)[nH]8)[C@@H]7O)c(C)c6oc5=O)c4C)c(=O)oc3c2C)OC1(C)C [coumermycin A1]
inhibition of ADP-ribosylation by mSir2α ([1]; 40 μM): strongly inhibited | inhibition of NAD hydrolysis by Sir2p [2]: inhibited | inhibition of NAD hydrolysis by Sir2p ([2]; listed as Coumermycin A1): inhibit | inhibition of ADP-ribosylation by Sir2p [2]: inhibited | inhibition of ADP-ribosylation by Sir2p ([2]; listed as Coumermycin A1): inhibit | inhibition of deacetylation of the H3 tail by Sir2p [3]: did not inhibit; also recorded: not capable of inhibiting | IC50 [4]: 27 µM

CO[C@@H]1[C@@H](OC(N)=O)[C@@H](O)[C@H](Oc2ccc3c(O)c(NC(=O)c4ccc(O)c(CC=C(C)C)c4)c(=O)oc3c2C)OC1(C)C [novobiocin]
inhibition of ADP-ribosylation by mSir2α ([1]; 200 μM): strongly inhibited | IC50 [4]: 370 µM

NC(=O)c1ccccc1 [benzamide]
inhibition of the ADP-ribosylation activity of the mSir2α protein [1]: did not inhibit
